{"source": "paper PMC9783881", "about": "“Synthesis and Preclinical Evaluation of Small-Molecule Prostate-Specific Membrane Antigen-Targeted Abiraterone Conjugate” (Molecules, 2022)", "test_system": "human adult dermal fibroblasts (HDFa)", "assay": "Cytotoxicity on human adult dermal fibroblasts, MTT-test", "assay_type": "cell-based", "protocol": "Human adult dermal fibroblasts (HDFa). (ATCC) were propagated in DMEM medium (Paneco) supplemented with 10% fetal calf serum (Gibco) and 1% pemicillin/streptomycin in a 5% CO2 atmosphere at 37 °C. Cytotoxicity of PSMA-Abi and AbiAc in fibroblasts were studied using MTT-test. The cells in the exponential growth phase were trypsinized, counted, and seeded at a density of 5000 cells/well in 96-well plate. Cells were incubated with both tested agents at the designated concentrations (0.4–100 μM) for 72 h; then, each well was treated with 20 μL MTT solution in PBS (5 mg/mL) and cells were incubated at least for 3 h, and formazan was dissolved in DMSO. The absorbance was measured at […] and 620 nm using Thermofischer Scientific Multiscan FC. The values for each point were calculated from 6 wells.", "data": [{"smiles": "C[C@]12CC[C@H](OC(=O)CCCc3cn(CCCNC(=O)[C@H](Cc4ccc(O)cc4)NC(=O)[C@H](Cc4ccccc4)NC(=O)CCC(=O)NCCCCCC(=O)N(CCCC[C@H](NC(=O)N[C@@H](CCC(=O)O)C(=O)O)C(=O)O)Cc4cccc(Cl)c4)nn3)CC1=CC[C@@H]1[C@@H]2CC[C@]2(C)C(c3cccnc3)=CC[C@@H]12", "note": "[PSMA-Abi]", "values": [{"measurement": "CC50", "setting": "HDFa, 72 h, MTT", "value": "> 100", "unit": "µM"}, {"measurement": "toxicity for human fibroblasts", "setting": "tested concentrations 0.4–100 µM", "value": "inactive"}]}]}
